From patent publication US4816452A, “Aminothiazole substituted penicillins and antibacterial compositions thereof” (Beecham Group P.L.C., priority 1985, dated 1989)
Converted amounts (≈) assume the structure as drawn.

How the values were obtained:
S. epidermidis PHLN20 = assay: In vitro MIC, S. epidermidis PHLN20; type: cell-based; settings: Staphylococcus epidermidis
Description: (§1) |In Vitro Biological Data.

[1] = Blood concentration in mice after subcutaneous administration; type: in vivo; settings: mouse, sc, 50 mg/kg
Description: The compound of example 4 was administered to mice (5) by the subcutaneous route at a dosage of 50 mg/kg and the blood concentration determined.

B. catarrhalis Ravasio = assay: In vitro MIC, B. catarrhalis Ravasio; type: cell-based; settings: Moraxella catarrhalis
Description: as §1

S. pneumoniae 1761 = assay: In vitro MIC, S. pneumoniae 1761; type: cell-based; settings: Streptococcus pneumoniae
Description: as §1

S. aureus Smith [2] = assay: M.I.C, S. aureus Smith; type: cell-based; settings: Staphylococcus aureus, in vivo
H. influenzae NEMCl = assay: In vitro MIC, H. influenzae NEMCl; type: cell-based; settings: Haemophilus influenzae
Description: as §1

S. aureus Oxford = assay: In vitro MIC, S. aureus Oxford; type: cell-based; settings: Staphylococcus aureus
Description: as §1

S. aureus Smith [3] = assay: In vivo experimental infection in mice, S. aureus Smith; settings: Staphylococcus aureus, sc, subcutaneous, dosed at 1 and 5 hours after infection, 5 mice/group, read-out: Total S.C. CD50
Description: (§2) In Vivo Biological Data.
(§3) The compound of example 4 was tested in vivo in mice
(§4) against experimental infections. The results of these
(§5) *dosed at 1 and 5 hours after infection. 5 mice/group.

H. influenzae Q1 = assay: In vitro MIC, H. influenzae Q1; type: cell-based; settings: Haemophilus influenzae
Description: as §1

S. aureus V573 = assay: In vitro MIC, S. aureus V573 (methicillin resistant strain); type: cell-based; settings: Staphylococcus aureus
Description: In Vitro Biological Data.
(+ = methicillin resistant strain)

S. aureus MB9 [4] = assay: In vitro MIC, S. aureus MB9; type: cell-based; settings: for MIC: Staphylococcus aureus; for (M.I.C): in vivo
Description: as §1

S. aureus MB9 [5] = assay: In vivo experimental infection in mice, S. aureus MB9; settings: Staphylococcus aureus, sc, subcutaneous, dosed at 1 and 5 hours after infection, 5 mice/group, read-out: Total S.C. CD50
Description: as §2, §3, §4, §5

SMILES	MIC (S. epidermidis PHLN20) [µg/mL]	AUC [1] [ng·h/mL]	concentration at 5 min ([1]; 5 mins) [ng/mL]	concentration at 10 min ([1]; 10 mins) [ng/mL]	concentration at 20 min ([1]; 20 mins) [ng/mL]	concentration at 0.5 h ([1]; 30 mins) [ng/mL]	concentration at 1 h ([1]; 60 mins) [ng/mL]	concentration at 2 h ([1]; 120 mins) [ng/mL]	MIC (B. catarrhalis Ravasio) [µg/mL]	MIC (S. pneumoniae 1761) [µg/mL]	MIC (S. aureus Smith [2]) [µg/mL]	MIC (H. influenzae NEMCl) [µg/mL]	MIC (S. aureus Oxford) [µg/mL]	ED50 (S. aureus Smith [3]) [mg/kg]	MIC (H. influenzae Q1) [µg/mL]	MIC (S. aureus V573) [µg/mL]	MIC (S. aureus MB9 [4]) [µg/mL]	(M.I.C) (S. aureus MB9 [4]) [µg/mL]	ED50 (S. aureus MB9 [5]) [mg/kg]
CC1(C)S[C@@H]2[C@H](NC(=O)/C(=N\OC3CCCCC3)c3csc(N)n3)C(=O)N2[C@H]1C(=O)O [Example 4, Sodium 6β-[2-(2-aminothiazol-4-yl)-(Z)-2-cyclohexyloxyiminoacetamido]penicillanate]	0.25	9520	31000	21800	14300	7700	900	< 90	0.25	< 0.03	0.12	0.5	0.12	1.5	0.12	4	0.5	0.5	4
Cc1onc(-c2c(F)cccc2Cl)c1C(=O)N[C@@H]1C(=O)N2[C@@H]1SC(C)(C)[C@@H]2C(=O)O [flucloxacillin, reference compound]	0.25 (≈ 0.551 µM)	–	–	–	–	–	–	–	16 (≈ 35.3 µM)	0.25 (≈ 0.551 µM)	0.25 (≈ 0.551 µM)	16 (≈ 35.3 µM)	0.25 (≈ 0.551 µM)	6	4 (≈ 8.81 µM)	32 (≈ 70.5 µM)	0.5 (≈ 1.1 µM)	0.5	17
